From patent publication US9993494B2, “Compositions and methods for treating fibrotic disease” (eFFECTOR Therapeutics, Inc., priority 2014, dated 2018)

System: normal human lung fibroblasts
Experiment: Ribosomal profiling: translational efficiency in TGFβ-treated fibroblasts
Format: cell-based
Conditions: vs untreated fibroblasts
Protocol: Ribosomal profiling allows for measurement of changes in transcription and translation on a genome-wide basis accompanying TGFβ-dependent transformation of fibroblasts to myofibroblasts. Ribosomal profiles of the TGFβ-treated fibroblasts from Example 1 (about 6×10^6 cells/10 cm plate) were prepared and analyzed for changes in translational efficiencies with respect to potential disease-associated cellular changes accompanying this TGFβ-induced transformation.
Briefly, cells were washed with cold PBS supplemented with cycloheximide and lysed with 1× mammalian cell lysis buffer for 10 minutes on ice. Lysates were clarified by centrifugation for 10 minutes at 14,000 rpm and supernatants were collected. Cell lysates were processed to generate ribosomal protected fragments and total mRNA according to the instructions included with the ARTseq Ribosome Profiling Kit (Illumina, San Diego, Calif.). Sequencing of total RNA (RNA) and of ribosome-protected fragments of RNA (RPF) was carried out using RNA-Seq methodology according to the manufacturer's instructions (Illumina). To analyze the ribosomal profiles, RNA-Seq reads were processed with tools from the FASTX-Toolkit (fastq_quality_trimmer, fastx_clipper and fastx_trimmer). Unprocessed and processed reads were evaluated for a variety of quality measures using FastQC, and processed reads were mapped to the human genome using TopHat (see, e.g., Trapnell et al., Bioinformatics 25:1105, 2009). Gene-by-gene assessment of the number of fragments strictly and uniquely mapping to the coding region of each gene was conducted using HTSeq-count, a component of the HTSeq package. […] Genes with low counts in either RPF or RNA were excluded from differential analyses. Pathway and network analyses of differential data were conducted using Ingenuity Pathway Analysis (IPA).

Question: What does the source list for TGF-β?
Answer: Log2FC TE AKT1: −0.15; Log2FC TE AKT2: −0.16; Log2FC TE AKT3: 0.35; Log2FC TE ATM: −0.16; Log2FC TE EIF1: 0.75; Log2FC TE EIF2A: 0.74; Log2FC TE EIF2AK1: −0.25; Log2FC TE EIF2AK3: 0.67; Log2FC TE EIF2AK4: −0.28; Log2FC TE EIF2B1: 0.57; Log2FC TE EIF2B2: 0.16; Log2FC TE EIF2B3: 0.54; Log2FC TE EIF2B4: −0.35; Log2FC TE EIF2B5: 0.46; Log2FC TE EIF2C2: 0.12; Log2FC TE EIF2S1: −0.18; Log2FC TE EIF2S2: −0.43; Log2FC TE EIF2S3: 1.05; Log2FC TE EIF3A: 0.04; Log2FC TE EIF3B: 0.30; Log2FC TE EIF3D: 0.71; Log2FC TE EIF3E: 1.33; Log2FC TE EIF3F: 0.92; Log2FC TE EIF3G: 0.55; Log2FC TE EIF3H: 1.34; Log2FC TE EIF3I: 0.29; Log2FC TE EIF3K: 0.73; Log2FC TE EIF3L: 1.63; Log2FC TE EIF3M: 0.90; Log2FC TE EIF4A1: 0.35; Log2FC TE EIF4A2: 0.41; Log2FC TE EIF4A3: 0.19; Log2FC TE EIF4E: −0.51; Log2FC TE EIF4G1: 0.10; Log2FC TE EIF4G2: 0.87; Log2FC TE EIF4G3: −0.54; Log2FC TE EIF5: 0.56; Log2FC TE FAU: 0.35; Log2FC TE GRB2: 0.05; Log2FC TE GSK3B: −0.13; Log2FC TE HRAS: 0.13; Log2FC TE MAP2K1: −0.18; Log2FC TE MAP2K2: 0.02; Log2FC TE MAPK1: 0.12; Log2FC TE MAPK3: 0.29; Log2FC TE MRAS: −0.45; Log2FC TE NRAS: 0.19; Log2FC TE PABPC1: 0.16; Log2FC TE PAIP1: −0.69; Log2FC TE PIK3C2A: −0.64; Log2FC TE PIK3C3: −0.09; Log2FC TE PIK3CA: −0.66; Log2FC TE PIK3R4: −0.69; Log2FC TE PPP1CA: 0.04; Log2FC TE PPP1CB: 0.13; Log2FC TE PPP1CC: 0.27; Log2FC TE PPP1R15A: −0.09; Log2FC TE RAF1: 0.16; Log2FC TE RPL3: 1.68; Log2FC TE RPL4: 1.23; Log2FC TE RPL5: 1.49; Log2FC TE RPL6: 1.13; Log2FC TE RPL7: 0.59; Log2FC TE RPL7A: 1.37; Log2FC TE RPL8: 0.69; Log2FC TE RPL9: 1.41; Log2FC TE RPL10: 0.74; Log2FC TE RPL10A: 0.92; Log2FC TE RPL11: 0.78; Log2FC TE RPL12: 1.28; Log2FC TE RPL13: 0.83; Log2FC TE RPL13A: 1.26; Log2FC TE RPL14: 1.08; Log2FC TE RPL15: 0.95; Log2FC TE RPL17: 0.97; Log2FC TE RPL18: 0.81; Log2FC TE RPL18A: 1.06; Log2FC TE RPL19: 0.71; Log2FC TE RPL21: 0.83; Log2FC TE RPL22: 0.22; Log2FC TE RPL22L1: 0.84; Log2FC TE RPL23: 0.79; Log2FC TE RPL23A: 1.03; Log2FC TE RPL24: 1.09; Log2FC TE RPL26: 1.42; Log2FC TE RPL27: 1.17; Log2FC TE RPL27A: 1.17; Log2FC TE RPL28: 1.24; Log2FC TE RPL29: 1.16; Log2FC TE RPL30: 1.20; Log2FC TE RPL31: 0.80; Log2FC TE RPL32: 1.55; Log2FC TE RPL34: 1.21; Log2FC TE RPL35: 0.59; Log2FC TE RPL35A: 1.22; Log2FC TE RPL36: 0.76; Log2FC TE RPL36AL: −0.08; Log2FC TE RPL37: 1.31; Log2FC TE RPL37A: 1.33; Log2FC TE RPL38: 1.00; Log2FC TE RPL41: 0.85; Log2FC TE RPLP0: 0.73; Log2FC TE RPLP1: 0.50; Log2FC TE RPLP2: 0.93; Log2FC TE RPS2: 0.88; Log2FC TE RPS3: 1.22; Log2FC TE RPS3A: 1.48; Log2FC TE RPS4X: 1.14; Log2FC TE RPS4Y1: 0.78; Log2FC TE RPS5: 0.75; Log2FC TE RPS6: 1.59; Log2FC TE RPS7: 1.13; Log2FC TE RPS8: 1.20; Log2FC TE RPS9: 0.97; Log2FC TE RPS10: 0.74; Log2FC TE RPS11: 0.97; Log2FC TE RPS12: 0.94; Log2FC TE RPS13: 1.15; Log2FC TE RPS14: 1.01; Log2FC TE RPS15: 0.74; Log2FC TE RPS15A: 1.53; Log2FC TE RPS16: 1.10; Log2FC TE RPS18: 1.18; Log2FC TE RPS19: 0.99; Log2FC TE RPS20: 1.39; Log2FC TE RPS21: 1.36; Log2FC TE RPS23: 0.74; Log2FC TE RPS24: 0.66; Log2FC TE RPS25: 1.58; Log2FC TE RPS26: 0.71; Log2FC TE RPS27: 1.08; Log2FC TE RPS27A: 0.71; Log2FC TE RPS27L: −0.15; Log2FC TE RPS28: 0.74; Log2FC TE RPS29: 0.89; Log2FC TE RPSA: 0.99; Log2FC TE RRAS: 0.00; Log2FC TE RRAS2: 0.02; Log2FC TE SHC1: −0.04; Log2FC TE SOS2: 0.49; Log2FC TE UBA52: 0.87
